According to patent US11208386B2, “Inhibitors of protein arginine deiminases (PADs) and methods of preparation and use thereof” (University of Massachusetts, priority 2016, dated 2021):
pKi: −log10 of the molar value.

Columns and labels:
Type in all cases: biochemical
PAD2 = molecular target: T1, PAD2 (Homo sapiens, UniProt Q9Y2J8); assay: Inactivation kinetics, PAD2; settings: for kinact/KI: a: single kobs determined, b: from a linear fit, other footnotes: from kinact and KI; for Fold PAD2 Selectivity: kinact/KI relative to least inhibited isozyme (1.0)
T1 construct: made in house
Summary of the method: (§1)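 PAD1, 2 or 4 (2.0 μM) or PAD3 (5.0 μM) preincubated at 37 °C with varying inhibitor in 50 mM HEPES, 10 mM CaCl2, 2 mM DTT, pH 7.6. Timed aliquots assayed 15 min with 10 mM BAEE (BAA for PAD3); citrulline quantified by COLDER.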

PAD4 = molecular target: T2, PAD4 (Homo sapiens, UniProt Q9UM07); assay: Inactivation kinetics, PAD4; settings: for kinact/KI: a: single kobs determined, b: from a linear fit; for Fold PAD4 Selectivity: kinact/KI relative to least inhibited isozyme (1.0)
T2 construct: made in house
Summary of the method: as §1

PAD3 = molecular target: T3, PAD3 (Homo sapiens, UniProt Q9ULW8); assay: Inactivation kinetics, PAD3; settings: for kinact/KI: a: single kobs determined; for Fold PAD3 Selectivity: kinact/KI relative to least inhibited isozyme (1.0)
T3 construct: made in house
T3 sequence (Q9ULW8 1-664): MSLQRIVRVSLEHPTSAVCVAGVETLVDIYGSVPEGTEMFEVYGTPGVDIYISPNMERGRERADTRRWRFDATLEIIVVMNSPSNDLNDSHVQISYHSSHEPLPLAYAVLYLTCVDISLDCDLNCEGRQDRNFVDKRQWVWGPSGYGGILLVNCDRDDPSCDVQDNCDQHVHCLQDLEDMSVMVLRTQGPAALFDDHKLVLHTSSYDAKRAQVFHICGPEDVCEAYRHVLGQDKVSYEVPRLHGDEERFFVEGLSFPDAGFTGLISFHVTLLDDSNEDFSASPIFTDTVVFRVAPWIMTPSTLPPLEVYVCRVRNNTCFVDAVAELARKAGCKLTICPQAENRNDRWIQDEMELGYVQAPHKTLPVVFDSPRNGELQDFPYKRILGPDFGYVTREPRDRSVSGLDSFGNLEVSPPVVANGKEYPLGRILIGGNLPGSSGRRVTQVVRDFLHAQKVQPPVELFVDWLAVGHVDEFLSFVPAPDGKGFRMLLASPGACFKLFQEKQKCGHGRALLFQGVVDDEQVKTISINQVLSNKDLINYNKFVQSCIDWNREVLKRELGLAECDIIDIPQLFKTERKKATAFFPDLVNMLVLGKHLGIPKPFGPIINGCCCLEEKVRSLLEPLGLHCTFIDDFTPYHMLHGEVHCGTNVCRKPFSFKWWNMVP
Summary of the method: as §1

PAD1 = molecular target: T4, PAD1 (Homo sapiens, UniProt Q9ULC6); assay: Inactivation kinetics, PAD1; settings: for kinact/KI: a: single kobs determined, b: from a linear fit; for Fold PAD1 Selectivity: kinact/KI relative to least inhibited isozyme (1.0)
T4 construct: made in house
T4 sequence (Q9ULC6 1-663): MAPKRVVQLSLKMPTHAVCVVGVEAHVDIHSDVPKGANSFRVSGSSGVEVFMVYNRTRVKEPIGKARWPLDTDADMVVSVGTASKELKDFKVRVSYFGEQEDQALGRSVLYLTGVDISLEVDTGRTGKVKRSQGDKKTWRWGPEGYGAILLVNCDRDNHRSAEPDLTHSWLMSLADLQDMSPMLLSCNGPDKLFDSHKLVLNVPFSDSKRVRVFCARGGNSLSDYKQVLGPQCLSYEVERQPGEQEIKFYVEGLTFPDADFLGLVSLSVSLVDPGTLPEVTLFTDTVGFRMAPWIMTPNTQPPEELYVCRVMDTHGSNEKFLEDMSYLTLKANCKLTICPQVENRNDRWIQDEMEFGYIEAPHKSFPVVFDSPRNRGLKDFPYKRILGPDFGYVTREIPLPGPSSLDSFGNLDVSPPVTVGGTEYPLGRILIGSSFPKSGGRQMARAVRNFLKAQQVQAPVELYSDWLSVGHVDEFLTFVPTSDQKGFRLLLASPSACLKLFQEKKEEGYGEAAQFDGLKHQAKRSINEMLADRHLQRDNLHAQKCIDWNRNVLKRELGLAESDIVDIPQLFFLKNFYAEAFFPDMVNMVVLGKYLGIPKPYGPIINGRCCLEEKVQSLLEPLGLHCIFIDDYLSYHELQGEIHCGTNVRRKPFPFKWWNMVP
Summary of the method: as §1

T1 sequence (Q9Y2J8 whole entry): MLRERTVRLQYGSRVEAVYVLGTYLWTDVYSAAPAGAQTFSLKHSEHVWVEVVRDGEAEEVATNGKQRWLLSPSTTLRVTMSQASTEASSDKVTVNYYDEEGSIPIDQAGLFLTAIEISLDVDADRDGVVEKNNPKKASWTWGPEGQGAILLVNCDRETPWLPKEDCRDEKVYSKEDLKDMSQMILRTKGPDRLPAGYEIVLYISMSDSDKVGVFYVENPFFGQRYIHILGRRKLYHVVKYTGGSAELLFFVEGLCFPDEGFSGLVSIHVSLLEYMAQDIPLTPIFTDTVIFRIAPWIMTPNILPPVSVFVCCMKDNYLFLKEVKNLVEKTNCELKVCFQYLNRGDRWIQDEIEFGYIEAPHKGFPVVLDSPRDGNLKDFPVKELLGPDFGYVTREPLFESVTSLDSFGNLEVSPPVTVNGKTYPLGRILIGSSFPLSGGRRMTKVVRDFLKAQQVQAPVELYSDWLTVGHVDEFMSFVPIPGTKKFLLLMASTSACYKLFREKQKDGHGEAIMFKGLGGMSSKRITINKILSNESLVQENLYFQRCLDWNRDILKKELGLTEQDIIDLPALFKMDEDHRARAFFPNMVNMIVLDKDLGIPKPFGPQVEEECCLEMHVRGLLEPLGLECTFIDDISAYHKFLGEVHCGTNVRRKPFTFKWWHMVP
T2 sequence (Q9UM07 whole entry): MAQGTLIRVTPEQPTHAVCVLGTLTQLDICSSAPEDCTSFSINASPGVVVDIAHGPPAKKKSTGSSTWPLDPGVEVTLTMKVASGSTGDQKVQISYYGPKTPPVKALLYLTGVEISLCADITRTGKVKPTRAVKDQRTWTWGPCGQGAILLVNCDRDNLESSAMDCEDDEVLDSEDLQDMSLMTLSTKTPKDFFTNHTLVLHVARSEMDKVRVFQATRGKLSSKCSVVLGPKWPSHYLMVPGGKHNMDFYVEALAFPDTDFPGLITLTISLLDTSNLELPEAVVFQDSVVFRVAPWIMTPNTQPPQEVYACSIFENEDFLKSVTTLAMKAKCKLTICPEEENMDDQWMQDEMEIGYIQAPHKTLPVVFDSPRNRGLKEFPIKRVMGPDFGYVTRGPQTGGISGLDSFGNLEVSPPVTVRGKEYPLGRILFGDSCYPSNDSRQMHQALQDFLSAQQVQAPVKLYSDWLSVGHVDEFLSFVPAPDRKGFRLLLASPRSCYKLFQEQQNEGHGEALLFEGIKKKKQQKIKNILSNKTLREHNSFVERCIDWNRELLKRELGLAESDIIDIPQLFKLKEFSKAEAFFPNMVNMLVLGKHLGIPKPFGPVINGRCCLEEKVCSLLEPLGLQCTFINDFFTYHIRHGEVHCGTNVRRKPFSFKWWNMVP

Structure (SMILES)	kinact/KI (PAD2)	Fold PAD2 Selectivity (PAD2)	kinact/KI (PAD4)	Fold PAD4 Selectivity (PAD4)	kinact/KI (PAD3)	Fold PAD3 Selectivity (PAD3)	kinact/KI (PAD1)	Fold PAD1 Selectivity (PAD1)	pKi (PAD2; PAD2, table footnote)	kinact (PAD2; PAD2, table footnote)
CC(C)n1c([C@H](CCCNC(=N)CF)NC(=O)c2ccccc2C(=O)O)nc2ccccc21 [Compound 6g, N1-(2-Carboxyl)benzoyl-N5-(2-fluoro-1-iminoethyl)-1-(1-isopropyl-benzo[d]imidazol-2-yl)-L-ornithine]	412 M⁻¹ s⁻¹	54 fold	7.67 M⁻¹ s⁻¹	1.0 fold	33.5 M⁻¹ s⁻¹	4.4 fold	378 M⁻¹ s⁻¹	49 fold	–	–
COc1cccc2c1nc([C@H](CCCNC(=N)CF)NC(=O)c1ccccc1C(=O)O)n2C [Compound 6i, N1-(2-Carboxyl)benzoyl-N5-(2-fluoro-1-iminoethyl)-1-(4-methoxy-1-methyl-benzo[d]imidazol-2-yl)-L-ornithine]	340 M⁻¹ s⁻¹	3.4 fold	101 M⁻¹ s⁻¹	1.0 fold	113 M⁻¹ s⁻¹	1.1 fold	627 M⁻¹ s⁻¹	6.2 fold	–	–
COc1cccc2[nH]c([C@H](CCCNC(=N)CCl)NC(=O)c3cccc4c3C(=O)NC4)nc12 [Compound 7j, N1-(3-oxoisoindoline)benzoyl-N5-(2-chloro-1-iminoethyl)-1-(4-methoxy-1H-benzo[d]imidazol-2-yl)-L-ornithine]	802 M⁻¹ s⁻¹	11 fold	72.3 M⁻¹ s⁻¹	1.0 fold	502 M⁻¹ s⁻¹	6.9 fold	2180 M⁻¹ s⁻¹	30 fold	–	–
CCn1c([C@H](CCCNC(=N)CF)NC(=O)c2cccc3c2C(=O)NC3)nc2cc(OC)ccc21 [Compound 7u, N1-(3-oxoisoindoline)benzoyl-N5-(2-fluoro-1-iminoethyl)-1-(5-methoxy-1-ethyl-benzo[d]imidazol-2-yl)-L-ornithine]	658 M⁻¹ s⁻¹	50 fold	13.2 M⁻¹ s⁻¹	1.0 fold	33 M⁻¹ s⁻¹	2.5 fold	316 M⁻¹ s⁻¹	24 fold	–	–
Cn1c([C@H](CCCNC(=N)CF)NC(=O)c2ccccc2C(=O)O)nc2ccccc21 [Compound 6c, N1-(2-Carboxyl)benzoyl-N5-(2-fluoro-1-iminoethyl)-1-(1-methyl-benzo[d]imidazol-2-yl)-L-ornithine]	197 M⁻¹ s⁻¹	15 fold	13.3 M⁻¹ s⁻¹	1.0 fold	17.2 M⁻¹ s⁻¹	1.3 fold	538 M⁻¹ s⁻¹	40 fold	–	–
COc1ccc2[nH]c([C@H](CCCNC(=N)CCl)NC(=O)c3cccc4c3C(=O)NC4)nc2c1 [Compound 7t, N1-(3-oxoisoindoline)benzoyl-N5-(2-chloro-1-iminoethyl)-1-(5-methoxy-1H-benzo[d]imidazol-2-yl)-L-ornithine]	1000 M⁻¹ s⁻¹	3.5 fold	630 M⁻¹ s⁻¹	2.2 fold	291 M⁻¹ s⁻¹	1.0 fold	2130 M⁻¹ s⁻¹	7.3 fold	–	–
CCn1c([C@H](CCCNC(=N)CCl)NC(=O)c2cccc3c2C(=O)NC3)nc2ccccc21 [Compound 7f, N1-(3-oxoisoindoline)benzol-N5-(2-chloro-1-iminoethyl)-1-(1-ethyl-benzo[d]imidazol-2-yl)-L-ornithine]	1010 M⁻¹ s⁻¹	4.8 fold	210 M⁻¹ s⁻¹	1.0 fold	377 M⁻¹ s⁻¹	1.8 fold	2200 M⁻¹ s⁻¹	10 fold	–	–
Cn1c([C@H](CCCNC(=N)CF)NC(=O)c2ccc(-c3ccccc3)cc2)nc2ccccc21 [Compound 5g, N1-[1,4′-Phenyl]benzoyl-N5-(2-fluoro-1-iminoethyl)-1-(1-methyl-benzo[d]imidazol-2-yl)-L-ornithine]	13.7 M⁻¹ s⁻¹	1.8 fold	7.5 M⁻¹ s⁻¹	1.0 fold	26.7 M⁻¹ s⁻¹	3.6 fold	21.3 M⁻¹ s⁻¹	2.8 fold	–	–
COc1cccc2c1nc([C@H](CCCNC(=N)CF)NC(=O)c1cccc3c1C(=O)NC3)n2C [Compound 7k, N1-(3-oxoisoindoline)benzoyl-N5-(2-fluoro-1-iminoethyl)-1-(4-methoxy-1-methyl-benzo[d]imidazol-2-yl)-L-ornithine]	3500 M⁻¹ s⁻¹	47 fold	238 M⁻¹ s⁻¹	3.2 fold	73.8 M⁻¹ s⁻¹	1.0 fold	2150 M⁻¹ s⁻¹	29 fold	4.78	0.0578 s⁻¹

Results, then the compound that gave them:

kinact/KI (PAD2)	Fold PAD2 Selectivity (PAD2)	kinact/KI (PAD4)	Fold PAD4 Selectivity (PAD4)	kinact/KI (PAD3)	Fold PAD3 Selectivity (PAD3)	kinact/KI (PAD1)	Fold PAD1 Selectivity (PAD1)	pKi (PAD2; PAD2, table footnote)	kinact (PAD2; PAD2, table footnote)	Structure (SMILES)
55.2 M⁻¹ s⁻¹	1.0 fold	64.2 M⁻¹ s⁻¹	1.2 fold	86.7 M⁻¹ s⁻¹	1.6 fold	325 M⁻¹ s⁻¹	5.9 fold	–	–	Cn1c([C@H](CCCNC(=N)CCl)NC(=O)c2ccccc2C(=O)OC(C)(C)C)nc2ccccc21 [Compound 9b, N1-(2-tert-butylcarboxy)benzol-N5-(2-chloro-1-iminoethyl)-1-(1-methyl-benzo[d]imidazol-2-yl)-L-ornithine]
630 M⁻¹ s⁻¹	70 fold	9 M⁻¹ s⁻¹	1.0 fold	24.7 M⁻¹ s⁻¹	2.7 fold	253 M⁻¹ s⁻¹	28 fold	–	–	CCN1Cc2cccc(C(=O)N[C@@H](CCCNC(=N)CF)c3nc4cc(OC)ccc4n3CC)c2C1=O [Compound 8y, N1-(2-ethyl-3-oxoisoindoline)benzoyl-N5-(2-fluoro-1-iminoethyl)-1-(5-methoxy-1-ethyl-benzo[d]imidazol-2-yl)-L-ornithine]
1560 M⁻¹ s⁻¹	58 fold	70 M⁻¹ s⁻¹	2.6 fold	26.7 M⁻¹ s⁻¹	1.0 fold	858 M⁻¹ s⁻¹	32 fold	–	–	COc1cccc2c1nc([C@H](CCCNC(=N)CF)NC(=O)c1cccc3c1C(=O)N(C(C)C)C3)n2C [Compound 8q]
853 M⁻¹ s⁻¹	4.1 fold	207 M⁻¹ s⁻¹	1.0 fold	241 M⁻¹ s⁻¹	1.2 fold	732 M⁻¹ s⁻¹	3.5 fold	–	–	COc1cccc2c1nc([C@H](CCCNC(=N)CCl)NC(=O)c1cccc3c1C(=O)N(C(C)C)C3)n2C [Compound 8r]
776 M⁻¹ s⁻¹	27 fold	29.2 M⁻¹ s⁻¹	1.0 fold	99.5 M⁻¹ s⁻¹	3.4 fold	907 M⁻¹ s⁻¹	31 fold	–	–	CCN1Cc2cccc(C(=O)N[C@@H](CCCNC(=N)CCl)c3nc4c(OC)cccc4n3CC)c2C1=O [Compound 8v, N1-(2-ethyl-3-oxoisoindoline)benzoyl-N5-(2-chloro-1-iminoethyl)-1-(4-methoxy-1-ethyl-benzo[d]imidazol-2-yl)-L-ornithine]
